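Test compounds were applied to cells in 96-well plates for 48 hours at 5 doses. Here, GI50 denotes the concentration required for 50% inhibition of growth. Definition used: TGI = concentration required for complete inhibition of growth.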
Tests used:
Experiment in all cases: NCI-60 cell line screen, 48 h
786-0 renal = system: 786-0 renal
A498 renal = system: A498 renal
A549 NSCLC = system: A549 NSCLC
ACHN renal = system: ACHN renal
BT-549 breast = system: BT-549 breast
CAKI-1 renal = system: CAKI-1 renal
CCRF-CEM leukemia = system: CCRF-CEM leukemia
COLO 205 colon = system: COLO 205 colon
DU-145 prostate = system: DU-145 prostate
EKVX NSCLC = system: EKVX NSCLC
HCC-2998 colon = system: HCC-2998 colon
HCT-116 colon = system: HCT-116 colon
HCT-15 colon = system: HCT-15 colon
HL-60(TB) leukemia = system: HL-60(TB) leukemia
HOP-62 NSCLC = system: HOP-62 NSCLC
HOP-92 NSCLC = system: HOP-92 NSCLC
HS 578T breast = system: HS 578T breast
HT29 colon = system: HT29 colon
IGROV1 ovarian = system: IGROV1 ovarian
K-562 leukemia = system: K-562 leukemia
KM12 colon = system: KM12 colon
LOX IMVI melanoma = system: LOX IMVI melanoma
M14 melanoma = system: M14 melanoma
MALME-3M melanoma = system: MALME-3M melanoma
MCF7 breast = system: MCF7 breast
MDA-MB-231 breast = system: MDA-MB-231 breast
MDA-MB-435 = system: MDA-MB-435
MOLT-4 leukemia = system: MOLT-4 leukemia
NCI-H226 lung = system: NCI-H226 lung
NCI-H23 lung = system: NCI-H23 lung
NCI-H460 lung = system: NCI-H460 lung
NCI-H522 lung = system: NCI-H522 lung
NCI/ADR-RES ovarian = system: NCI/ADR-RES ovarian
OVCAR-3 ovarian = system: OVCAR-3 ovarian
OVCAR-4 ovarian = system: OVCAR-4 ovarian
OVCAR-5 ovarian = system: OVCAR-5 ovarian
OVCAR-8 ovarian = system: OVCAR-8 ovarian
PC-3 prostate = system: PC-3 prostate
RXF 393 renal = system: RXF 393 renal
SF-268 CNS = system: SF-268 CNS
SF-295 CNS = system: SF-295 CNS
SF-539 CNS = system: SF-539 CNS
SK-MEL-2 melanoma = system: SK-MEL-2 melanoma
SK-MEL-28 melanoma = system: SK-MEL-28 melanoma
SK-MEL-5 melanoma = system: SK-MEL-5 melanoma
SK-OV-3 ovarian = system: SK-OV-3 ovarian
SN12C renal = system: SN12C renal
SNB-19 CNS = system: SNB-19 CNS
SNB-75 CNS = system: SNB-75 CNS
SR leukemia = system: SR leukemia
SW-620 colon = system: SW-620 colon
T-47D breast = system: T-47D breast
TK-10 renal = system: TK-10 renal
U251 CNS = system: U251 CNS
UACC-257 melanoma = system: UACC-257 melanoma
UACC-62 melanoma = system: UACC-62 melanoma
UO-31 renal = system: UO-31 renal

What does the source list for `CCN1CCN(CCNc2nccc(-c3c(-c4ccc(F)c(O)c4)nc4occn34)n2)S1(=O)=O`?
GI50 (786-0 renal): 9.44 µM; TGI (786-0 renal): > 100 µM; GI50 (A498 renal): 5.15 µM; TGI (A498 renal): > 100 µM; GI50 (A549 NSCLC): 4.58 µM; TGI (A549 NSCLC): > 100 µM; GI50 (ACHN renal): 3.44 µM; TGI (ACHN renal): > 100 µM; GI50 (BT-549 breast): 2.97 µM; TGI (BT-549 breast): > 100 µM; GI50 (CAKI-1 renal): 4.3 µM; TGI (CAKI-1 renal): > 100 µM; GI50 (CCRF-CEM leukemia): 2.2 µM; TGI (CCRF-CEM leukemia): > 100 µM; GI50 (COLO 205 colon): 4.6 µM; TGI (COLO 205 colon): > 100 µM; GI50 (DU-145 prostate): 3.75 µM; TGI (DU-145 prostate): > 100 µM; GI50 (EKVX NSCLC): 6.81 µM; TGI (EKVX NSCLC): > 100 µM; GI50 (HCC-2998 colon): 6.19 µM; TGI (HCC-2998 colon): > 100 µM; GI50 (HCT-116 colon): 3.76 µM; TGI (HCT-116 colon): > 100 µM; GI50 (HCT-15 colon): 3.93 µM; TGI (HCT-15 colon): > 100 µM; GI50 (HL-60(TB) leukemia): 4.16 µM; TGI (HL-60(TB) leukemia): > 100 µM; GI50 (HOP-62 NSCLC): 5.97 µM; TGI (HOP-62 NSCLC): > 100 µM; GI50 (HOP-92 NSCLC): 52.1 µM; TGI (HOP-92 NSCLC): > 100 µM; GI50 (HS 578T breast): 6.75 µM; TGI (HS 578T breast): > 100 µM; GI50 (HT29 colon): 4.2 µM; TGI (HT29 colon): > 100 µM; GI50 (IGROV1 ovarian): 4.06 µM; TGI (IGROV1 ovarian): > 100 µM; GI50 (K-562 leukemia): 3.67 µM; TGI (K-562 leukemia): > 100 µM; GI50 (KM12 colon): 3.72 µM; TGI (KM12 colon): > 100 µM; GI50 (LOX IMVI melanoma): 3.76 µM; TGI (LOX IMVI melanoma): > 100 µM; GI50 (M14 melanoma): 4.28 µM; TGI (M14 melanoma): > 100 µM; GI50 (MALME-3M melanoma): 3.8 µM; TGI (MALME-3M melanoma): > 100 µM; GI50 (MCF7 breast): 3.82 µM; TGI (MCF7 breast): > 100 µM; GI50 (MDA-MB-231 breast): 32.3 µM; TGI (MDA-MB-231 breast): > 100 µM; GI50 (MDA-MB-435): 3.03 µM; TGI (MDA-MB-435): > 100 µM; GI50 (MOLT-4 leukemia): 2.56 µM; TGI (MOLT-4 leukemia): > 100 µM; GI50 (NCI-H226 lung): 3.8 µM; TGI (NCI-H226 lung): > 100 µM; GI50 (NCI-H23 lung): 4.12 µM; TGI (NCI-H23 lung): > 100 µM; GI50 (NCI-H460 lung): 4.92 µM; TGI (NCI-H460 lung): > 100 µM; GI50 (NCI-H522 lung): 2.93 µM; TGI (NCI-H522 lung): > 100 µM; GI50 (NCI/ADR-RES ovarian): 3.01 µM; TGI (NCI/ADR-RES ovarian): > 100 µM; GI50 (OVCAR-3 ovarian): 4.44 µM; TGI (OVCAR-3 ovarian): > 100 µM; GI50 (OVCAR-4 ovarian): 4.59 µM; TGI (OVCAR-4 ovarian): > 100 µM; GI50 (OVCAR-5 ovarian): > 100 µM; TGI (OVCAR-5 ovarian): > 100 µM; GI50 (OVCAR-8 ovarian): 3.63 µM; TGI (OVCAR-8 ovarian): > 100 µM; GI50 (PC-3 prostate): 2.12 µM; TGI (PC-3 prostate): > 100 µM; GI50 (RXF 393 renal): 2.51 µM; TGI (RXF 393 renal): > 100 µM; GI50 (SF-268 CNS): 4.84 µM; TGI (SF-268 CNS): > 100 µM; GI50 (SF-295 CNS): 5.27 µM; TGI (SF-295 CNS): > 100 µM; GI50 (SF-539 CNS): > 100 µM; TGI (SF-539 CNS): > 100 µM; GI50 (SK-MEL-2 melanoma): 3.98 µM; TGI (SK-MEL-2 melanoma): > 100 µM; GI50 (SK-MEL-28 melanoma): 5.68 µM; TGI (SK-MEL-28 melanoma): > 100 µM; GI50 (SK-MEL-5 melanoma): 2.23 µM; TGI (SK-MEL-5 melanoma): 5.89 µM; GI50 (SK-OV-3 ovarian): 12.9 µM; TGI (SK-OV-3 ovarian): > 100 µM; GI50 (SN12C renal): 4.41 µM; TGI (SN12C renal): > 100 µM; GI50 (SNB-19 CNS): > 100 µM; TGI (SNB-19 CNS): > 100 µM; GI50 (SNB-75 CNS): 3.65 µM; TGI (SNB-75 CNS): > 100 µM; GI50 (SR leukemia): 7.46 µM; TGI (SR leukemia): > 100 µM; GI50 (SW-620 colon): 8.42 µM; TGI (SW-620 colon): > 100 µM; GI50 (T-47D breast): 2.13 µM; TGI (T-47D breast): 24.6 µM; GI50 (TK-10 renal): 35.6 µM; TGI (TK-10 renal): > 100 µM; GI50 (U251 CNS): 13.3 µM; TGI (U251 CNS): > 100 µM; GI50 (UACC-257 melanoma): 5.15 µM; TGI (UACC-257 melanoma): > 100 µM; GI50 (UACC-62 melanoma): 1.5 µM; TGI (UACC-62 melanoma): 6.56 µM; GI50 (UO-31 renal): 2.66 µM; TGI (UO-31 renal): > 100 µM

Source: PubChem BioAssay (NCI)
